Measurements from paper PMC5218480 (PLoS ONE, 2017).

System: MV-4-11 cells
Test: Gene expression microarray analysis (Affymetrix PrimeView) and GSEA
Type: cell-based, human
Design: RFU PODN (11730768_x_at) / Fold change /veh PODN (11730768_x_at) / RFU LINC00158 (11744669_a_at) / Fold change /veh LINC00158 (11744669_a_at) / RFU DUSP10 (11751237_a_at) / Fold change /veh DUSP10 (11751237_a_at) / RFU ID3 (11757404_x_at) / Fold change /veh ID3 (11757404_x_at) / RFU PLEKHG5 (11737974_s_at) / Fold change /veh PLEKHG5 (11737974_s_at) / RFU LRRC4B (11730491_at) / Fold change /veh LRRC4B (11730491_at) / RFU GIMAP4 (11747438_a_at) / Fold change /veh GIMAP4 (11747438_a_at) / RFU KRT8 (11758183_x_at) / Fold change /veh KRT8 (11758183_x_at) / RFU CNN1 (11734310_a_at) / Fold change /veh CNN1 (11734310_a_at) / RFU VPS37D (11726825_at) / Fold change /veh VPS37D (11726825_at) / RFU C10orf10 (11716522_x_at) / Fold change /veh C10orf10 (11716522_x_at) / RFU KIR2DL2 /// KIR2DL4 /// KIR2DL5A /// KIR2DL5B /// KIR2DS1 /// KIR2DS2 /// KIR2DS3 /// KIR2DS4 /// KIR3DL3 /// KIR3DL3 /// KIR3DS1 (11738374_at) / Fold change /veh KIR2DL2 /// KIR2DL4 /// KIR2DL5A /// KIR2DL5B /// KIR2DS1 /// KIR2DS2 /// KIR2DS3 /// KIR2DS4 /// KIR3DL3 /// KIR3DL3 /// KIR3DS1 (11738374_at) / RFU C1QL1 (11718748_at) / Fold change /veh C1QL1 (11718748_at) / RFU TMPRSS4 (11747572_a_at) / Fold change /veh TMPRSS4 (11747572_a_at) / RFU HAMP (11756126_x_at) / Fold change /veh HAMP (11756126_x_at) / RFU RNFT2 (11725882_a_at) / Fold change /veh RNFT2 (11725882_a_at) / RFU NR4A2 (11747474_a_at) / Fold change /veh NR4A2 (11747474_a_at) / RFU ABCC12 (11746883_a_at) / Fold change /veh ABCC12 (11746883_a_at) / RFU TMEM136 (11760407_x_at) / Fold change /veh TMEM136 (11760407_x_at) / RFU CLDN22 /// WWC2 (11732394_at) / Fold change /veh CLDN22 /// WWC2 (11732394_at) / RFU HLA-DPB1 (11760878_x_at) / Fold change /veh HLA-DPB1 (11760878_x_at) / RFU SPINT1 (11716480_a_at) / Fold change /veh SPINT1 (11716480_a_at) / RFU GAP43 (11754022_s_at) / Fold change /veh GAP43 (11754022_s_at) / RFU A4GNT (11735810_at) / Fold change /veh A4GNT (11735810_at) / RFU PRB3 (11715151_x_at) / Fold change /veh PRB3 (11715151_x_at) / RFU TUBB4B (11761932_at) / Fold change /veh TUBB4B (11761932_at) / RFU CAPN14 (11732068_a_at) / Fold change /veh CAPN14 (11732068_a_at) / RFU TMCC2 (11721928_a_at) / Fold change /veh TMCC2 (11721928_a_at) / RFU IRGQ (11745062_a_at) / Fold change /veh IRGQ (11745062_a_at) / RFU FAM174B (11720279_a_at) / Fold change /veh FAM174B (11720279_a_at) / RFU TMPRSS4 (11748680_a_at) / Fold change /veh TMPRSS4 (11748680_a_at) / RFU FAM212B (11763350_a_at) / Fold change /veh FAM212B (11763350_a_at) / RFU PLEKHG5 (11743358_a_at) / Fold change /veh PLEKHG5 (11743358_a_at) / RFU ZSCAN30 (11745921_a_at) / Fold change /veh ZSCAN30 (11745921_a_at) / RFU CMKLR1 (11741424_a_at) / Fold change /veh CMKLR1 (11741424_a_at) / RFU LOC101060620 /// MAPK8IP1 (11723275_at) / Fold change /veh LOC101060620 /// MAPK8IP1 (11723275_at) / RFU SPTSSB (11747773_x_at) / Fold change /veh SPTSSB (11747773_x_at) / RFU PRSS12 (11739890_at) / Fold change /veh PRSS12 (11739890_at) / RFU BIN1 (11741810_x_at) / Fold change /veh BIN1 (11741810_x_at) / RFU WNT11 (11732464_a_at) / Fold change /veh WNT11 (11732464_a_at) / RFU C10orf10 (11716521_a_at) / Fold change /veh C10orf10 (11716521_a_at) / RFU C5orf56 (11738089_at) / Fold change /veh C5orf56 (11738089_at) / RFU CYB561 (11721691_x_at) / Fold change /veh CYB561 (11721691_x_at) / RFU ANKRD19P (11752326_a_at) / Fold change /veh ANKRD19P (11752326_a_at) / RFU OR2T12 /// OR2T33 /// OR2T8 (11738714_s_at) / Fold change /veh OR2T12 /// OR2T33 /// OR2T8 (11738714_s_at) / RFU VCAN (11748164_a_at) / Fold change /veh VCAN (11748164_a_at) / RFU JSRP1 (11732532_at) / Fold change /veh JSRP1 (11732532_at) / RFU KRTAP10-11 (11738290_x_at) / Fold change /veh KRTAP10-11 (11738290_x_at) / RFU MYO3A (11730013_a_at) / Fold change /veh MYO3A (11730013_a_at) / RFU EBF3 (11725865_a_at) / Fold change /veh EBF3 (11725865_a_at) / RFU CAMK2N1 (11719241_x_at) / Fold change /veh CAMK2N1 (11719241_x_at) / RFU C5orf56 (11738088_a_at) / Fold change /veh C5orf56 (11738088_a_at) / RFU OLFML3 (11715873_a_at) / Fold change /veh OLFML3 (11715873_a_at) / RFU LOC100653217 /// NTM (11731650_a_at) / Fold change /veh LOC100653217 /// NTM (11731650_a_at) / RFU MAPK11 (11762145_a_at) / Fold change /veh MAPK11 (11762145_a_at) / RFU FIZ1 (11724087_x_at) / Fold change /veh FIZ1 (11724087_x_at) / RFU OASL (11726364_x_at) / Fold change /veh OASL (11726364_x_at) / RFU SOX15 (11748057_x_at) / Fold change /veh SOX15 (11748057_x_at) / RFU CD79A (11719716_a_at) / Fold change /veh CD79A (11719716_a_at) / RFU HIST1H1D (11736915_at) / Fold change /veh HIST1H1D (11736915_at) / RFU CASKIN2 (11723855_a_at) / Fold change /veh CASKIN2 (11723855_a_at) / RFU LOC730098 (11760151_x_at) / Fold change /veh LOC730098 (11760151_x_at) / RFU OR4N2 (11742367_at) / Fold change /veh OR4N2 (11742367_at) / RFU PRRT2 (11749266_a_at) / Fold change /veh PRRT2 (11749266_a_at) / RFU SNX32 (11753110_a_at) / Fold change /veh SNX32 (11753110_a_at) / RFU CDHR5 (11726645_a_at) / Fold change /veh CDHR5 (11726645_a_at) / RFU RCAN1 (11760418_a_at) / Fold change /veh RCAN1 (11760418_a_at) / RFU FAM167A (11723789_a_at) / Fold change /veh FAM167A (11723789_a_at) / RFU FAM26E (11764081_at) / Fold change /veh FAM26E (11764081_at) / RFU ISYNA1 (11749810_s_at) / Fold change /veh ISYNA1 (11749810_s_at) / RFU ACY1 (11761880_at) / Fold change /veh ACY1 (11761880_at) / RFU 11764098_at / Fold change /veh 11764098_at / RFU SAMD14 (11745864_x_at) / Fold change /veh SAMD14 (11745864_x_at) / RFU NPB (11741838_a_at) / Fold change /veh NPB (11741838_a_at) / RFU TMPRSS6 (11731388_a_at) / Fold change /veh TMPRSS6 (11731388_a_at) / RFU KRTAP10-2 (11738614_at) / Fold change /veh KRTAP10-2 (11738614_at) / RFU ARHGAP8 /// PRR5-ARHGAP8 (11727945_x_at) / Fold change /veh ARHGAP8 /// PRR5-ARHGAP8 (11727945_x_at) / RFU KRTAP5-7 /// NADSYN1 (11734609_at) / Fold change /veh KRTAP5-7 /// NADSYN1 (11734609_at) / RFU RASL12 (11751679_a_at) / Fold change /veh RASL12 (11751679_a_at) / RFU CDKN2B (11736163_a_at) / Fold change /veh CDKN2B (11736163_a_at) / RFU PRF1 (11729649_at) / Fold change /veh PRF1 (11729649_at) / RFU, ZNF638 /// ZNF638-IT1 / Fold change vs veh, ZNF638 /// ZNF638-IT1 / RFU, PANK3 / Fold change vs veh, PANK3 / RFU, SH3YL1 / Fold change vs veh, SH3YL1 / RFU, ZEB2 / Fold change vs veh, ZEB2 / RFU, NRIP1 / Fold change vs veh, NRIP1 / RFU, PTTG1IP / Fold change vs veh, PTTG1IP / RFU, CAPN2 / Fold change vs veh, CAPN2 / RFU, MED14 / Fold change vs veh, MED14 / RFU, SNORA58 / Fold change vs veh, SNORA58 / RFU, C1orf63 / Fold change vs veh, C1orf63 / RFU, LRRFIP1 / Fold change vs veh, LRRFIP1 / RFU, NDUFAF7 / Fold change vs veh, NDUFAF7 / RFU, SLC12A2 / Fold change vs veh, SLC12A2 / RFU, IBTK / Fold change vs veh, IBTK / RFU, ESF1 / Fold change vs veh, ESF1 / Fold change vs veh, TMEM50B / RFU, TAOK1 / Fold change vs veh, TAOK1 / RFU, ACBD3 / Fold change vs veh, ACBD3 / RFU, TMA16 / Fold change vs veh, TMA16 / RFU, RWDD3 / Fold change vs veh, RWDD3 / RFU, BCAT1 / Fold change vs veh, BCAT1 / RFU, EDEM3 / Fold change vs veh, EDEM3 / RFU, TMEM33 / Fold change vs veh, TMEM33 / RFU, WDR75 / Fold change vs veh, WDR75 / RFU, AHCTF1 / Fold change vs veh, AHCTF1 / RFU, TFRC / Fold change vs veh, TFRC / RFU, ZDHHC17 / Fold change vs veh, ZDHHC17 / RFU, NOM1 / Fold change vs veh, NOM1 / RFU, ARL8B / Fold change vs veh, ARL8B / RFU, ZBTB11 / Fold change vs veh, ZBTB11 / RFU, TAMM41 / Fold change vs veh, TAMM41 / RFU, KIAA1704 /// LOC100996395 / Fold change vs veh, KIAA1704 /// LOC100996395 / RFU, ING1 / Fold change vs veh, ING1 / RFU, TRMT61B / Fold change vs veh, TRMT61B / RFU, FUBP3 / Fold change vs veh, FUBP3 / RFU, TP53 / Fold change vs veh, TP53 / RFU, TNKS2 / Fold change vs veh, TNKS2 / RFU, ZFP14 / Fold change vs veh, ZFP14 / RFU, ACTR2 / Fold change vs veh, ACTR2 / RFU, PPP3R1 / Fold change vs veh, PPP3R1 / RFU, PIK3R1 / Fold change vs veh, PIK3R1 / RFU, HNRNPA1 / Fold change vs veh, HNRNPA1 / RFU, RNF170 / Fold change vs veh, RNF170 / RFU, ZNF28 / Fold change vs veh, ZNF28 / RFU, RNGTT / Fold change vs veh, RNGTT / RFU, OGT / Fold change vs veh, OGT / RFU, BRD1 / Fold change vs veh, BRD1 / RFU, MARS / Fold change vs veh, MARS / RFU, ZNF655 / Fold change vs veh, ZNF655 / RFU, FAHD1 / Fold change vs veh, FAHD1 / RFU, BDP1 / Fold change vs veh, BDP1 / RFU, LRRCC1 / Fold change vs veh, LRRCC1 / RFU, ARID1A / Fold change vs veh, ARID1A / RFU, ZNF146 / Fold change vs veh, ZNF146 / RFU, ZNF330 / Fold change vs veh, ZNF330 / RFU, GPN3 / Fold change vs veh, GPN3 / RFU, C9orf123 / Fold change vs veh, C9orf123 / RFU, N4BP2L2 / Fold change vs veh, N4BP2L2 / RFU, ARFIP1 / Fold change vs veh, ARFIP1 / RFU, FAM179B / Fold change vs veh, FAM179B / RFU, BCL10 / Fold change vs veh, BCL10 / RFU, UHRF1BP1L / Fold change vs veh, UHRF1BP1L / RFU, BET1 / Fold change vs veh, BET1 / RFU, CNOT2 / Fold change vs veh, CNOT2 / RFU, ZNF268 / Fold change vs veh, ZNF268 / Fold change vs veh, ZNF507 / RFU, DGCR2 / Fold change vs veh, DGCR2 / RFU, WDSUB1 / Fold change vs veh, WDSUB1 / Fold change vs veh, HSP90B1 /// MIR3652 / RFU, ADSS / Fold change vs veh, ADSS / RFU, GK / Fold change vs veh, GK / RFU, ZNF148 / Fold change vs veh, ZNF148 / RFU, TAF9 / Fold change vs veh, TAF9 / RFU, SLC1A5 / Fold change vs veh, SLC1A5 / RFU, SLMO2 / Fold change vs veh, SLMO2 / RFU, ABCC4 / Fold change vs veh, ABCC4 / RFU, LOC101060439 /// RAP1B / Fold change vs veh, LOC101060439 /// RAP1B / RFU, RFX7 / Fold change vs veh, RFX7 / RFU, GTPBP10 / Fold change vs veh, GTPBP10 / RFU, CNEP1R1 / Fold change vs veh, CNEP1R1 / RFU, BIVM-ERCC5 /// ERCC5 / Fold change vs veh, BIVM-ERCC5 /// ERCC5 / RFU, ILF3 / Fold change vs veh, ILF3 / RFU 11762660_at / Fold change /veh 11762660_at / RFU VCAN (11757783_s_at) / Fold change /veh VCAN (11757783_s_at) / RFU DDX43 (11728927_at) / Fold change /veh DDX43 (11728927_at) / RFU KRT8 (11758188_x_at) / Fold change /veh KRT8 (11758188_x_at) / RFU NKD1 (11759106_at) / Fold change /veh NKD1 (11759106_at) / RFU SRD5A1 (11742802_a_at) / Fold change /veh SRD5A1 (11742802_a_at) / RFU TPSAB1 /// TPSB2 (11721975_s_at) / Fold change /veh TPSAB1 /// TPSB2 (11721975_s_at) / RFU GSTM3 (11746129_a_at) / Fold change /veh GSTM3 (11746129_a_at) / RFU IL23R (11737362_x_at) / Fold change /veh IL23R (11737362_x_at) / RFU TMEM51 (11727254_a_at) / Fold change /veh TMEM51 (11727254_a_at) / RFU PIWIL2 (11732686_x_at) / Fold change /veh PIWIL2 (11732686_x_at) / RFU ORM1 (11744905_x_at) / Fold change /veh ORM1 (11744905_x_at) / RFU CCDC152 (11743942_at) / Fold change /veh CCDC152 (11743942_at) / RFU ECM1 (11717891_a_at) / Fold change /veh ECM1 (11717891_a_at) / RFU IL23R (11748794_a_at) / Fold change /veh IL23R (11748794_a_at) / RFU TNFAIP8L3 (11732012_x_at) / Fold change /veh TNFAIP8L3 (11732012_x_at) / RFU MBOAT4 (11741988_at) / Fold change /veh MBOAT4 (11741988_at) / RFU 11764193_at / Fold change /veh 11764193_at / RFU TMEM53 (11763286_at) / Fold change /veh TMEM53 (11763286_at) / RFU MAGEB2 (11727129_at) / Fold change /veh MAGEB2 (11727129_at) / RFU TMEM200A (11744735_a_at) / Fold change /veh TMEM200A (11744735_a_at) / RFU CCDC152 (11751479_a_at) / Fold change /veh CCDC152 (11751479_a_at) / RFU FAM211A (11726209_a_at) / Fold change /veh FAM211A (11726209_a_at) / RFU RGS16 (11746705_a_at) / Fold change /veh RGS16 (11746705_a_at) / RFU VCAN (11755009_s_at) / Fold change /veh VCAN (11755009_s_at) / RFU RHOB (11743442_s_at) / Fold change /veh RHOB (11743442_s_at) / RFU RGS16 (11720943_a_at) / Fold change /veh RGS16 (11720943_a_at) / RFU RGS16 (11720944_at) / Fold change /veh RGS16 (11720944_at) / RFU, VPS4B / Fold change vs veh, VPS4B / RFU, CREB1 / Fold change vs veh, CREB1 / RFU, DNAJC13 / Fold change vs veh, DNAJC13 / RFU, GNAQ / Fold change vs veh, GNAQ / RFU, CDK5R1 / Fold change vs veh, CDK5R1 / RFU, ZRANB3 / Fold change vs veh, ZRANB3 / RFU, CUL4A / Fold change vs veh, CUL4A / RFU, CCNY / Fold change vs veh, CCNY / RFU, UFL1 / Fold change vs veh, UFL1 / RFU, COG3 / Fold change vs veh, COG3 / RFU, DIAPH2 / Fold change vs veh, DIAPH2 / RFU, SKA2 / Fold change vs veh, SKA2 / RFU, AFF3 / Fold change vs veh, AFF3 / RFU, LMF1 / Fold change vs veh, LMF1 / RFU, IPO11 / Fold change vs veh, IPO11 / RFU, DFFB / Fold change vs veh, DFFB / RFU, FOXP1 / Fold change vs veh, FOXP1 / RFU, CARD8 / Fold change vs veh, CARD8 / RFU, STRN3 / Fold change vs veh, STRN3 / RFU, ADK / Fold change vs veh, ADK / RFU, RASSF2 / Fold change vs veh, RASSF2 / RFU, WIPF1 / Fold change vs veh, WIPF1 / RFU, LARP1B / Fold change vs veh, LARP1B / RFU, RASA1 / Fold change vs veh, RASA1 / RFU, RB1 / Fold change vs veh, RB1 / RFU, PPFIA1 / Fold change vs veh, PPFIA1 / RFU, MAT2A / Fold change vs veh, MAT2A / RFU, CCT5 / Fold change vs veh, CCT5 / RFU, WDR92 / Fold change vs veh, WDR92 / RFU, CUX1 / Fold change vs veh, CUX1 / RFU, TTC7A / Fold change vs veh, TTC7A / RFU, TMEM135 / Fold change vs veh, TMEM135 / RFU, DEPTOR / Fold change vs veh, DEPTOR / RFU, CPM / Fold change vs veh, CPM / RFU, DNAJB6 / Fold change vs veh, DNAJB6 / RFU, CACNA2D3 / Fold change vs veh, CACNA2D3 / RFU, DTX4 / Fold change vs veh, DTX4 / RFU, TFCP2 / Fold change vs veh, TFCP2 / RFU, GMCL1 /// GMCL1P1 / Fold change vs veh, GMCL1 /// GMCL1P1 / RFU, AEBP2 / Fold change vs veh, AEBP2 / RFU, SNHG1 /// SNORD22 /// SNORD25 /// SNORD26 /// SNORD27 /// SNORD28 /// SNORD29 /// SNORD31 / Fold change vs veh, SNHG1 /// SNORD22 /// SNORD25 /// SNORD26 /// SNORD27 /// SNORD28 /// SNORD29 /// SNORD31 / Fold change (Aza/veh), C12orf56 (ProbeSet 11735607_a_at) / Fold change (ACY-1035/veh), C12orf56 (ProbeSet 11735607_a_at) / Fold change (Aza/veh), FGFR1OP (ProbeSet 11751329_s_at) / Fold change (ACY-1035/veh), FGFR1OP (ProbeSet 11751329_s_at) / Fold change (Aza/veh), VPS36 (ProbeSet 11739960_a_at) / Fold change (ACY-1035/veh), VPS36 (ProbeSet 11739960_a_at) / RFU SYPL1 (11715823_x_at) / Fold change /veh SYPL1 (11715823_x_at) / RFU IGFBP7 (11715501_s_at) / Fold change /veh IGFBP7 (11715501_s_at) / RFU REEP3 (11722064_at) / Fold change /veh REEP3 (11722064_at) / RFU IGLL1 (11728026_x_at) / Fold change /veh IGLL1 (11728026_x_at): dose or concentration left out as unconfirmed
Settings: gene FGFR1OP; ACY-1035 vs DMSO; LIST F

Compound: Nc1ccc(-c2cccs2)cc1NC(=O)c1ccc2c(c1)cc(C1CC1)n2CCN1CCOCC1 [ACY-1035]
- Fold change (ACY-1035/veh), FGFR1OP (ProbeSet 11751329_s_at): 0.57
